# Tests used:
# Format in all cases: cell-based
# Aspergillus flavus [1] = assay: MIC, YAG medium; details: 24 h at 35° C, MIC banded into grades; for MIC: Aspergillus flavus, 24 h, read-out: MIC grade, A. flavus
# In short: (§1)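 OD 485 nm read-out after 24 h at 35° C; MIC = lowest concentration inhibiting growth >70% vs drug-free control, in mg/L. Inoculum 1−2×10^4 cfu/mL in YAG medium; drug range 50-0.05 mg/L, retested at 0.5-0.0005 mg/L when needed.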
# [2] = system: Aspergillus fumigatus AF210; assay: MIC, YAG medium; details: 24 h at 35° C, MIC banded into grades; for MIC: Aspergillus fumigatus, read-out: MIC grade, A. fumigatus 210
# In short: as §1
# [3] = system: Aspergillus fumigatus AF293; assay: MIC, YAG medium; details: 24 h at 35° C, MIC banded into grades; for MIC: Aspergillus fumigatus, read-out: MIC grade, A. fumigatus
# In short: as §1
# Aspergillus niger [4] = assay: MIC, YAG medium; details: 24 h at 35° C, MIC banded into grades; for MIC: Aspergillus niger, read-out: MIC grade, A. niger
# In short: as §1
# Aspergillus terreus AT49 [5] = assay: MIC, YAG medium; details: 24 h at 35° C, MIC banded into grades; for MIC: Aspergillus terreus, read-out: MIC grade, A. terreus 49
# In short: as §1
# Aspergillus terreus AT4 [6] = assay: MIC, YAG medium; details: 24 h at 35° C, MIC banded into grades; for MIC: Aspergillus terreus, read-out: MIC grade, A. terreus
# In short: as §1
# Aspergillus flavus [7] = assay: MIC, RPMI medium; details: MIC banded into grades; for MIC: Aspergillus flavus, read-out: MIC grade, A. flavus
# In short: (§2)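 Broth microdilution in RPMI with 2% glucose, 0.135 M MOPS pH 7.0; compounds as doubling dilutions, 50-0.05 mg/L, inoculum 1−2×10^4 cfu/mL. Incubated 24-48 h at 35° C; growth by OD 485 nm. MIC is lowest concentration giving >80% growth inhibition versus drug-free control.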
# [8] = system: Aspergillus fumigatus AF210; assay: MIC, RPMI medium; details: for MIC: Aspergillus fumigatus, AF210, MIC banded into grades, read-out: MIC grade, A. fumigatus 210
# In short: as §2
# [9] = system: Aspergillus fumigatus AF293; assay: MIC, RPMI medium; details: for MIC: Aspergillus fumigatus, AF293, MIC banded into grades, read-out: MIC grade, A. fumigatus
# In short: as §2
# Aspergillus niger [10] = assay: MIC, RPMI medium; details: MIC banded into grades; for MIC: Aspergillus niger, read-out: MIC grade, A. niger
# In short: as §2
# Aspergillus terreus AT49 [11] = assay: MIC, RPMI medium; details: for MIC: Aspergillus terreus, AT49, MIC banded into grades, read-out: MIC grade, A. terreus 49
# In short: as §2
# Aspergillus terreus AT4 [12] = assay: MIC, RPMI medium; details: for MIC: Aspergillus terreus, AT4, MIC banded into grades, read-out: MIC grade, A. terreus
# In short: as §2
SMILES,MIC (Aspergillus flavus [1]) [µg/mL],MIC [2] [µg/mL],MIC [3] [µg/mL],MIC (Aspergillus niger [4]) [µg/mL],MIC (Aspergillus terreus AT49 [5]) [µg/mL],MIC (Aspergillus terreus AT4 [6]) [µg/mL],MIC (Aspergillus flavus [7]) [µg/mL],MIC [8] [µg/mL],MIC [9] [µg/mL],MIC (Aspergillus niger [10]) [µg/mL],MIC (Aspergillus terreus AT49 [11]) [µg/mL],MIC (Aspergillus terreus AT4 [12]) [µg/mL],other results
"COCCn1c(C)cc(-c2ccccc2)c1C(=O)C(=O)Nc1ccc(N2CCN(c3cc(C)cc(C)n3)CC2)cc1Cl [Example 92, N-{2-Chloro-4-[4-(4,6-dimethyl-pyridin-2-yl)-piperazin-1-yl]-phenyl}-2-[1-(2-methoxy-ethyl)-5-methyl-3-phenyl-1H-pyrrol-2-yl]-2-oxo-acetamide]",,,,,,,,,,,,,"MIC grade, A. flavus (Aspergillus flavus [1]): 3 (A grade of 3 represents an MIC of less than 1 mg/L); MIC grade, A. fumigatus 210 [2]: 3 (A grade of 3 represents an MIC of less than 1 mg/L); MIC grade, A. fumigatus [3]: 3 (A grade of 3 represents an MIC of less than 1 mg/L); MIC grade, A. niger (Aspergillus niger [4]): 3 (A grade of 3 represents an MIC of less than 1 mg/L); MIC grade, A. terreus 49 (Aspergillus terreus AT49 [5]): 3 (A grade of 3 represents an MIC of less than 1 mg/L); MIC grade, A. terreus (Aspergillus terreus AT4 [6]): 3 (A grade of 3 represents an MIC of less than 1 mg/L); MIC grade, A. flavus (Aspergillus flavus [7]): 1 (a grade of 1 represents an MIC of greater than 10 mg/L); MIC grade, A. fumigatus 210 ([8]; MIC banded into grades): 3 (A grade of 3 represents an MIC of less than 1 mg/L); MIC grade, A. fumigatus ([9]; MIC banded into grades): 3 (A grade of 3 represents an MIC of less than 1 mg/L); MIC grade, A. niger (Aspergillus niger [10]): 3 (A grade of 3 represents an MIC of less than 1 mg/L); MIC grade, A. terreus 49 (Aspergillus terreus AT49 [11]; MIC banded into grades): 1 (a grade of 1 represents an MIC of greater than 10 mg/L); MIC grade, A. terreus (Aspergillus terreus AT4 [12]; MIC banded into grades): 1 (a grade of 1 represents an MIC of greater than 10 mg/L)"
"Cc1cc(-c2ccccc2)c(C(=O)C(=O)Nc2ccncc2)n1C [Example 33, 2-(1,5-Dimethyl-3-phenyl-1H-pyrrol-2-yl)-2-oxo-N-pyridin-4-yl-acetamide]",> 10,> 10,> 10,> 10,1 to 10,> 10,> 10,> 10,> 10,> 10,> 10,> 10,

# Second part, led by results:
MIC (Aspergillus flavus [1]) [µg/mL],MIC [2] [µg/mL],MIC [3] [µg/mL],MIC (Aspergillus niger [4]) [µg/mL],MIC (Aspergillus terreus AT49 [5]) [µg/mL],MIC (Aspergillus terreus AT4 [6]) [µg/mL],MIC (Aspergillus flavus [7]) [µg/mL],MIC [8] [µg/mL],MIC [9] [µg/mL],MIC (Aspergillus niger [10]) [µg/mL],MIC (Aspergillus terreus AT49 [11]) [µg/mL],MIC (Aspergillus terreus AT4 [12]) [µg/mL],SMILES,other results
1 to 10,< 1,1 to 10,1 to 10,1 to 10,1 to 10,1 to 10,1 to 10,< 1,1 to 10,1 to 10,1 to 10,"Cc1cc(C)nc(N2CCN(c3ccc(NC(=O)C(=O)c4c(-c5ccccc5)cc(C)n4CCOC(C)C)cc3)CC2)c1 [Example 97, N-{4-[4-(4,6-Dimethyl-pyridin-2-yl)-piperazin-1-yl]-phenyl}-2-[1-(2-isopropoxy-ethyl)-5-methyl-3-phenyl-1H-pyrrol-2-yl]-2-oxo-acetamide]",
1 to 10,< 1,< 1,1 to 10,< 1,< 1,> 10,1 to 10,< 1,1 to 10,1 to 10,1 to 10,"COCCn1c(C)c(F)c(-c2ccccc2)c1C(=O)C(=O)Nc1ccc(N2CCN(c3cc(C)cc(C)n3)CC2)cc1 [Example 94, N-{4-[4-(4,6-Dimethyl-pyridin-2-yl)-piperazin-1-yl]-phenyl}-2-[4-fluoro-1-(2-methoxy-ethyl)-5-methyl-3-phenyl-1H-pyrrol-2-yl]-2-oxo-acetamide]",
> 10,> 10,> 10,> 10,> 10,> 10,> 10,> 10,> 10,> 10,> 10,> 10,"COCCn1c(C)cc(-c2ccccc2)c1C(=O)C(=O)Nc1cccc2ncccc12 [Example 29, 2-[1-(2-Methoxy-ethyl)-5-methyl-3-phenyl-1H-pyrrol-2-yl]-2-oxo-N-quinolin-5-yl-acetamide]",
< 1,< 1,< 1,< 1,< 1,< 1,< 1,1 to 10,< 1,< 1,< 1,< 1,"Cc1cc(-c2ccccc2)c(C(=O)C(=O)Nc2cccc3ccccc23)n1C [Example 16, 2-(1,5-Dimethyl-3-phenyl-1H-pyrrol-2-yl)-N-naphthalen-1-yl-2-oxo-acetamide]",

# — patent US8993574B2, “Pyrrole antifungal agents” (F2G Ltd, priority 2008, dated 2015)
